In paper PMC10220883, “Relating Molecular Dynamics Simulations to Functional Activity for Gly-Rich Membranolytic Helical Kiadin Peptides” (Pharmaceutics, 2023):
No end group written: not given here.

How the values were obtained:
[1] = system: Staphylococcus aureus ATCC 25923; parameters: method as in PMID 29553266; conditions: cited from earlier work; for S. aureus MIC: microdilution, Mueller–Hinton broth, 5 × 10^5 CFU/mL, overnight 37 °C, no visual growth; for S. aureus MBC: no visible growth on MH agar after 18 h at 37 °C of aliquots from MIC, 2 × MIC, 4 × MIC wells
[2] = system: human red blood cells (RBC); conditions: cited from earlier work; for HC50 (haemolytic activity, text): 0.5% human erythrocytes in PBS
[3] = system: MEC-1 chronic lymphocytic leukaemia cell line; assay: MTT cytotoxicity assay; assay type: cell-based, human; parameters: Cytotoxicity MEC-1 (qualitative score): key to the marks not given beside the values; conditions: for IC50 MEC-1 cells: tested range 5 to 50 µM
Protocol: Cytotoxicity was also assessed on a human lymphocytic cell line by using the 3-(4,5-dimethylthiazol-2-yl)-2,5-diphenyl tetrazolium bromide (MTT) assay. The MEC-1 chronic lymphocytic leukaemia cell line was kindly provided by Prof. P. Macor (Department of Life Sciences, University of Trieste, IT). MEC-1 cells were cultured in RPMI 1640 complete medium supplemented with 2 mM L-glutamine, 100 U/mL penicillin, 100 µg/mL streptomycin and 10% foetal bovine serum (FBS) and were subcultured two/three times a week for not more than 20 passages. The colorimetric MTT assay was performed to assess the metabolic activity of cells plated onto 96-well culture plates (10^5 cells/well, V^f = 100 µL) that had been exposed to 5 to 50 µM kiadins for 24 h. Twenty microlitres of a stock MTT solution (5 mg/mL) were added to each well after 20 h and left to incubate for the remaining 4 h. The converted MTT dye was then solubilized with acidic isopropanol (0.04 N HCl in absolute isopropanol). Absorbance was measured at 540 and 630 nm using an automated microplate reader (EL311, BIO-TEK® Instruments, Charlotte, VT, USA). All measurements were carried out at least in triplicate. An IC50 value was estimated as the concentration of peptide causing a 50% decrease in viability, calculated using GraphPad Prism software.

[4] = system: Escherichia coli ATCC 25922; parameters: method as in PMID 29553266; conditions: cited from earlier work; for E. coli MIC: microdilution, Mueller–Hinton broth, 5 × 10^5 CFU/mL, overnight 37 °C, no visual growth; for E. coli MBC: no visible growth on MH agar after 18 h at 37 °C of aliquots from MIC, 2 × MIC, 4 × MIC wells
[5] = system: human red blood cells (RBC); assay: Haemolytic activity assay; assay type: cell-based; parameters: key to the marks not given beside the values
Protocol: Haemolytic activity was previously reported by Roncevic et al. and was evaluated by incubating 0.5% erythrocytes provided by an informed healthy donor with serially diluted peptides in 96-well microtiter plates. Haemoglobin release was monitored at 450 nm. Triton-X was used as a positive control, and the incubation of red blood cells in PBS without peptides was the negative control. A HC50 value was calculated as the concentration causing 50% haemolysis.

[6] = Surface plasmon resonance binding to immobilized liposomes; conditions: SPR, L1 chip with DOPC LUVs, PBS, 0.5 to 16 μM peptide, affinity-steady state model; estimated; repeated three times; read-out: KD (equilibrium dissociation constant)
Protocol: Large unilamellar vesicles (LUVs) were prepared as described by Morgera et al.. Briefly, dry 1,2-dioleoyl-sn-glycero-3-phosphocholine (DOPC) or phosphatidylglycerol:diphosphatidylglycerol (DPPG) was dissolved in chloroform/methanol (2:1) solution, then evaporated using a dry nitrogen stream and vacuum-dried for 24 h. The liposome cake was resuspended in 1 mL of sodium phosphate buffer (SPB) to a concentration of 5 mM phospholipid and spun for 1 h at 40 °C. The vesicles were then subjected to several freeze–thaw cycles before passing through a mini-extruder (Avanti Polar Lipids, Alabaster, AL, USA) with successive polycarbonate filters having 1, 0.4 and 0.1 μm pores before resuspending to a final phospholipid concentration of 0.4 mM. By calculating the surface area of a ∼100 nm liposome and taking into account the average area of a phospholipid headgroup (∼0.7 nm^2) (similar to the value determined in MD simulations), the concentration of the liposomes was estimated to be about 5 nM.
Peptide–membrane interactions were studied using an X-100 instrument (Biacore, GE Lifesciences). LUVs were prepared using DOPC as described above. The extruded unilamellar LUVs were then diluted to result in ~1 mM phospholipid in PBS. The L1 sensor chip was preconditioned and loaded with the LUVs, as described previously. […]

Row | Substance | S. aureus MIC [1] [mM] | S. aureus MBC [1] [mM] | HC50 (haemolytic activity, text) [2] | MEC-1 IC50 (concentration causing 50% decrease in viability) ([3]; MTT, 10^5 cells/well, 5 to 50 µM peptide, 24 h, RPMI 1640 with 10% FBS, at least triplicate) [µM] | IC50 MEC-1 cells ([3]; MTT, 24 h) [µM] | E. coli MIC [4] [mM] | E. coli MBC [4] [mM] | Cytotoxicity RBC (qualitative score) [5] | Cytotoxicity MEC-1 (qualitative score) [3] | Kd [6] [µM] | Haemolytic activity (in words) ([2]; 0.5% human erythrocytes, up to highest tested concentration)
1 | H-KIAKGALKALKIAKGALKAL-NH2 [kiadin-3] | 16 to 32 | 32 | about 95 μM | >50 | > 50 | 4 | 16 | – | – | – | –
2 | H-KIGKALGKALKALGKALGKA-NH2 [kiadin-4] | 16 to 32 | 32 | – | – | – | 8 | 16 | – | – | – | –
3 | KIAKGALKALKIAKVALKAL-NH2 [kiadin-2] | 8 to 16 | 8 to 16 | – | – | – | 0.25 to 0.5 | 0.5 to 1 | ++ | ++ | – | –
4 | H-KIALKALKALKALGKALKAL-NH2 [kiadin-6] | 4 | 4 | – | – | – | 1 to 2 | 2 to 4 | – | – | – | –
5 | KIAKVALKALKIAKVALKAL-NH2 [diPGLa-H] | 0.75 | 1.5 | about 22 μM | – | 9 ± 3 | 1.5 | 1.5 | – | – | ~5 | –
6 | KIAGKAGKIAKIAGKAGKIA-NH2 [kiadin-5, ab initio designed 20-residue amidated peptide with quadruple Gly substitution] | >64 | >64 | – | – | – | >64 | >64 | – | – | – | not to be haemolytic up to the highest tested concentration
7 | H-KIAKVALKALKIAKGALKAL-NH2 [kiadin-1] | 0.5 to 1 | 1.5 | – | – | – | 0.75 | 0.75 | +++ | +++ | – | –
